Measured values taken from patent US12336981B2, “Compounds and compositions for the inhibition of NAMPT” (Valo Health, Inc., priority 2010, dated 2025).
Like-named read-outs stand apart in the source and are kept apart here.

How the values were obtained:
A2780 cells = assay: In-vitro cell proliferation assay (SRB), A2780 cells; format: cell-based; conditions: Homo sapiens, A2780, 72 h, A2780 cells, 72 hours, read-out: A2780 IC50
Method: In-Vitro Cell Proliferation Assay
After overnight incubation at 37° C. and 5% CO2, the compound titrations were performed in a separate dilution plate by serially diluting the compounds in DMSO to make a 1000× stock. The compounds were then further diluted to 10× final concentration in culture media, whereupon 20 μL of each dilution was added to the plated cells with controls (e.g. DMSO and blank) to make a final volume of 200 μL. The final DMSO concentration in each well was 0.1%. The plates were then incubated for 72 hours at 37° C. in a 5% CO2 incubator. The number of viable cells was then assessed using sulforhodamine B (SRB) assay. Cells were fixed at 4° C. for 1 hour with the addition of 50 μL 30% trichloroacetic acid (TCA) to make a final concentration of 6% TCA. The plates were washed four times with H2O and allowed to dry for at least 1 hour, whereupon 100 μL of a 4% SRB in 1% acetic acid solution was added to each well and incubated at room temperature for at least 30 minutes. The plates were then washed three times with 1% acetic acid, dried, and treated with 100 μL of 10 mM Tris-Base solution. The plates were then read in a microplate reader at an absorbance of 570 nm. Background was generated on a separate plate with media only.
Method for Determining % Inhibition
First, the signals from the background plate are averaged, then the background was subtracted from the test plates.
wherein X denotes the compound concentration 1, Y denotes the compound concentration 2, XX denotes the % inhibition at compound concentration 1 (X), and YY denotes the % inhibition at compound concentration 2 (Y).

NAMPT = target: T1, NAMPT (Homo sapiens, UniProt P43490); assay: Biochemical inhibition assay: NAMPT enzymatic reaction, NMN quantified by mass spectrometry
T1 construct: His tag; host or cells: E. coli
How it was run: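 Inhibition of E. coli-expressed His-tagged human NAMPT, measured as NMN formation by mass spectrometry after a 30 min room-temperature reaction containing 1 μM NAM, 100 μM PRPP and 2.5 mM ATP.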

[1] = NAMPT enzymatic reaction, read-out: Biochem IC50
[2] = NAMPT enzymatic assay, read-out: Biochem IC50

T1 sequence (P43490 whole entry): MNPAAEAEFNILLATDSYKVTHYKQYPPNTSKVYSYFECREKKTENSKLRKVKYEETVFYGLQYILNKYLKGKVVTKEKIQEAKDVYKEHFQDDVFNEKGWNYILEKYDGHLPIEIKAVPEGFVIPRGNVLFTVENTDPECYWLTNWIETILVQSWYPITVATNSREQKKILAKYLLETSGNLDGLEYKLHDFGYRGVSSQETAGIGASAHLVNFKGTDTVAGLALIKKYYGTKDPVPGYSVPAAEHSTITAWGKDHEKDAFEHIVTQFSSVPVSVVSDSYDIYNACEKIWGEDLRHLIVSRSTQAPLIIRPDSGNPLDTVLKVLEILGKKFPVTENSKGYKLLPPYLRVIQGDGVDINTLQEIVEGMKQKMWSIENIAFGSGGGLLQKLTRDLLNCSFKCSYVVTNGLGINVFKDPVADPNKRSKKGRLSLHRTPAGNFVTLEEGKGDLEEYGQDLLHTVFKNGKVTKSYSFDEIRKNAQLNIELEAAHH

| SMILES | IC50 (A2780 cells; SRB) [nM] | IC50 (NAMPT; [1]) [µM] | IC50 (A2780 cells; SRB assay) [nM] | IC50 (NAMPT; [2]) [µM] | IC50 (NAMPT; Biochem IC50 uM) [µM] |
| --- | --- | --- | --- | --- | --- |
| COc1cc(OC)cc(S(=O)(=O)c2ccc(CNC(=O)c3cnc4nccn4c3)cc2)c1 [N-({4-[(3,5-dimethoxybenzene)sulfonyl]phenyl}methyl)imidazo[1,2-a]pyrimidine-6-carboxamide] | 1.6 | 0.0024 | – | – | – |
| O=C(NCc1ccc(S(=O)(=O)c2ccccc2)cc1)c1cc(-c2cccnc2)no1 [N-{[4-(benzenesulfonyl)phenyl]methyl}-3-(pyridin-3-yl)-1,2-oxazole-5-carboxamide] | – | 0.033 | > 30000 | – | – |
| Cc1c(F)cccc1S(=O)(=O)c1ccc(CNC(=O)c2ccc3nccn3c2)cc1 | 13.2 | 0.0469 | – | – | – |
| CCCCOc1ccc(S(=O)(=O)c2ccc(CNC(=O)c3cc4ccncc4s3)cc2)cc1Cl | 12.5 | 0.0048 | – | – | – |
| O=C(NCc1ccc(S(=O)(=O)N2CCCCC2)cc1)c1cc2cnccc2o1 [N-{[4-(piperidine-1-sulfonyl)phenyl]methyl}furo[3,2-c]pyridine-2-carboxamide] | – | 0.017 | 286 | – | – |
| COc1cccc(S(=O)(=O)c2ccc(CNC(=O)c3cnc4[nH]ncc4c3)cc2)c1 | 10 | 0.0209 | – | – | – |
| Cc1ccc(Cl)c(S(=O)(=O)c2ccc(CNC(=O)c3cc4ccncc4o3)cc2)c1F [N-({4-[(6-chloro-2-fluoro-3-methylbenzene)sulfonyl]phenyl}methyl)furo[2,3-c]pyridine-2-carboxamide] | 29.3 | – | – | 0.0219 | – |
| CN(C)CCc1ccc(S(=O)(=O)c2ccc(CNC(=O)c3cnc4nccn4c3)cc2)cc1 | 18.1 | – | – | 0.002 | – |
| Cc1ccc(Cl)c(S(=O)(=O)c2ccc(CNC(=O)c3cnc4nccn4c3)cc2)c1 | 22.5 | 0.0057 | – | – | – |
| CC(C)COc1ccc(S(=O)(=O)c2ccc(CNC(=O)c3cc4ccncc4o3)cc2)cc1 | 11.6 | – | – | 0.0094 | – |
| COc1ccc(F)c(S(=O)(=O)c2ccc(CNC(=O)c3cnc4nccn4c3)cc2)c1 | 62.9 | 0.0104 | – | – | – |
| Cn1cc(S(=O)(=O)c2ccc(CNC(=O)c3ccc4nccn4c3)cc2)c(C(F)(F)F)n1 [N-({4-[1-methyl-3-(trifluoromethyl)-1H-pyrazole-4-sulfonyl]phenyl}methyl)imidazo[1,2-a]pyridine-6-carboxamide] | 27.8 | – | – | 0.0299 | – |
| CC(C)(C)c1cccc(S(=O)(=O)c2ccc(CNC(=O)c3cc4ccncc4o3)cc2)c1 | 7 | 0.0093 | – | – | – |
| CCCCOc1ccc(S(=O)(=O)c2ccc(CNC(=O)c3ccc4nccn4c3)cc2)cc1F | 3.1 | 0.0062 | – | – | – |
| O=C(NCc1ccc(S(=O)(=O)c2cccc3c2OCO3)cc1)c1cnc2[nH]ncc2c1 [N-{[4-(2H-1,3-benzodioxole-4-sulfonyl)phenyl]methyl}-1H-pyrazolo[3,4-b]pyridine-5-carboxamide] | 88.4 | – | – | 0.047 | – |
| CCCOc1ccc(S(=O)(=O)c2ccc(CNC(=O)c3cc4ccncc4s3)cc2)c(C)c1 [N-({4-[(2-methyl-4-propoxybenzene)sulfonyl]phenyl}methyl)thieno[2,3-c]pyridine-2-carboxamide] | 1.7 | 0.0129 | – | – | – |
| CC(C)c1cccc(S(=O)(=O)c2ccc(CNC(=O)c3cnc4[nH]ncc4c3)cc2)c1 | 6.3 | – | – | 0.0139 | – |
| O=C(NCc1ccc(S(=O)(=O)c2cnc(N3CCCC3)s2)cc1)c1cnc2nccn2c1 [N-({4-[2-(pyrrolidin-1-yl)-1,3-thiazole-5-sulfonyl]phenyl}methyl)imidazo[1,2-a]pyrimidine-6-carboxamide] | 0.9 | – | – | 0.0029 | – |

| SMILES | IC50 (A2780 cells; SRB) [nM] | IC50 (NAMPT; [1]) [µM] | IC50 (A2780 cells; SRB assay) [nM] | IC50 (NAMPT; [2]) [µM] | IC50 (NAMPT; Biochem IC50 uM) [µM] |
| --- | --- | --- | --- | --- | --- |
| Cc1cc(C)c(S(=O)(=O)c2ccc(CNC(=O)c3cnc4[nH]ncc4c3)cc2)cc1C [N-({4-[(2,4,5-trimethylbenzene)sulfonyl]phenyl}methyl)-1H-pyrazolo[3,4-b]pyridine-5-carboxamide] | 19.3 | 0.0313 | – | – | – |
| CC(C)COc1cc(F)cc(S(=O)(=O)c2ccc(CNC(=O)c3cc4cnccc4[nH]3)cc2)c1 | 7 | – | – | 0.0132 | – |
| Cc1cc(F)cc(S(=O)(=O)c2ccc(CNC(=O)c3cnc4[nH]ncc4c3)cc2)c1 | 5.6 | 0.0095 | – | – | – |
| O=C(NCc1ccc(S(=O)(=O)c2cccc(OC(F)(F)F)c2)cc1)c1ccc2nccn2c1 [N-[(4-{[3-(trifluoromethoxy)benzene]sulfonyl}phenyl)methyl]imidazo[1,2-a]pyridine-6-carboxamide] | 3.18 | – | – | 0.00873 | – |
| Cc1ccc(S(=O)(=O)c2ccc(CNC(=O)c3cc4cnccc4[nH]3)cc2)cc1 [N-({4-[(4-methylbenzene)sulfonyl]phenyl}methyl)-1H-pyrrolo[3,2-c]pyridine-2-carboxamide] | – | 0.006 | 9 | – | – |
| CC(C)Oc1cc(F)ccc1S(=O)(=O)c1ccc(CNC(=O)c2ccc3nccn3c2)cc1 | 2.1 | – | – | 0.0222 | – |
| CCCCOc1ccc(S(=O)(=O)c2ccc(CNC(=O)c3cc4cnccc4[nH]3)cc2)cc1 [N-({4-[(4-butoxybenzene)sulfonyl]phenyl}methyl)-1H-pyrrolo[3,2-c]pyridine-2-carboxamide] | 17.1 | 0.0084 | – | – | – |
| O=C(NCc1ccc(S(=O)(=O)c2ccc(OC(F)(F)F)c(F)c2)cc1)c1cnc2[nH]ncc2c1 [N-[(4-{[3-fluoro-4-(trifluoromethoxy)benzene]sulfonyl}phenyl)methyl]-1H-pyrazolo[3,4-b]pyridine-5-carboxamide] | 13.7 | – | – | 0.0174 | – |
| O=C(NCc1ccc(S(=O)(=O)c2ccc(F)c(F)c2)cc1)c1cc2cnccc2[nH]1 [N-({4-[(3,4-difluorobenzene)sulfonyl]phenyl}methyl)-1H-pyrrolo[3,2-c]pyridine-2-carboxamide] | – | 0.013 | 14 | – | – |
| CCOc1ccc(S(=O)(=O)c2ccc(CNC(=O)c3ccc4nccn4c3)cc2)cc1 | 2.9 | 0.0045 | – | – | – |
| O=C(NCc1ccc(S(=O)(=O)c2ccc(N3CCOCC3)nc2)cc1)c1cc2ccncc2s1 [N-({4-[6-(morpholin-4-yl)pyridine-3-sulfonyl]phenyl}methyl)thieno[2,3-c]pyridine-2-carboxamide] | 0.7 | – | – | – | 0.0041 |
| Cc1cc(C)n(-c2cccc(S(=O)(=O)c3ccc(CNC(=O)c4cc5ccncc5o4)cc3)c2)n1 | 3.5 | – | – | 0.0071 | – |
| CCOc1cc(S(=O)(=O)c2ccc(CNC(=O)c3ccc4nccn4c3)cc2)ccc1F | 6 | 0.017 | – | – | – |
| COc1cc(C)cc(S(=O)(=O)c2ccc(CNC(=O)c3ccc4nccn4c3)cc2)c1 | 1.6 | 0.0053 | – | – | – |
| COc1cc(Cl)cc(S(=O)(=O)c2ccc(CNC(=O)c3cc4ccncc4o3)cc2)c1 | 1.5 | 0.0265 | – | – | – |
| O=C(NCc1ccc(S(=O)(=O)c2ccc(Cl)c(C(F)(F)F)c2)cc1)c1cc2cnccc2[nH]1 [N-[(4-{[4-chloro-3-(trifluoromethyl)benzene]sulfonyl}phenyl)methyl]-1H-pyrrolo[3,2-c]pyridine-2-carboxamide] | – | 0.008 | 5 | – | – |
| O=C(NCc1ccc(S(=O)(=O)c2ccc(C(F)(F)F)cc2C(F)(F)F)cc1)c1cnc2[nH]ncc2c1 [N-[(4-{[2,4-bis(trifluoromethyl)benzene]sulfonyl}phenyl)methyl]-1H-pyrazolo[3,4-b]pyridine-5-carboxamide] | 56.2 | – | – | 0.0816 | – |
| O=C(NCc1ccc(S(=O)(=O)c2ccc(C(F)(F)F)c(F)c2)cc1)c1ccc2nccn2c1 | 4.4 | – | – | 0.0402 | – |
